ChEMBL document CHEMBL4622974, “Leveraging an Open Science Drug Discovery Model to Develop CNS-Penetrant ALK2 Inhibitors for the Treatment of Diffuse Intrinsic Pontine Glioma” (J Med Chem, 2020)
Active and inactive are the calls of the source. The rule behind the calls is not given here.

Key:
[1] = Unbound plasma concentration in CD-1 mouse […] at 1 mg/kg, iv measured at 2 hrs by LC/MS/MS method; assay type: ADME, organism-based; conditions: in vivo
Activin receptor type-1B = molecular target: T1, Activin receptor type-1B (Homo sapiens, UniProt P36896); assay: Inhibition of human ALK4 using casein as substrate in presence of [gamma-33P]-ATP by radiometric hotspot assay; assay type: ADME
T1 sequence (P36896 whole entry): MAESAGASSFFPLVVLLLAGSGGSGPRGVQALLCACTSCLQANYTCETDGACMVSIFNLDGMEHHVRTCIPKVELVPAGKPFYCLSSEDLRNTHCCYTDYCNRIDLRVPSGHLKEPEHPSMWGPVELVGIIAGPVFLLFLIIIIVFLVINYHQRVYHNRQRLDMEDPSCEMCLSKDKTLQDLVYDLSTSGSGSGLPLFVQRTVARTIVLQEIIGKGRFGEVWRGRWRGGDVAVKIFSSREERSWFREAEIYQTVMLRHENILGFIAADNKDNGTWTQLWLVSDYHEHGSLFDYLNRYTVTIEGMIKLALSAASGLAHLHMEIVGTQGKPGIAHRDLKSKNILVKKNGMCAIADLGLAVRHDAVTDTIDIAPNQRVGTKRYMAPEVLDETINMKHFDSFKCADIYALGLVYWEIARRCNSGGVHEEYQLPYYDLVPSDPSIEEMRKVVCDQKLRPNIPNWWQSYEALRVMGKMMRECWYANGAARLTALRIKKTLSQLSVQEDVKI

Misshapen-like kinase 1 = Misshapen-like kinase 1 (Homo sapiens, UniProt Q8N4C8); assay: Inhibition of MINK (unknown origin)
[2] = Volume of distribution at steady state in SD rat at 2 mg/kg, iv after 0.25 to 24 hrs by LC/MS/MS method; assay type: ADME, organism-based; conditions: in vivo, read-out: Vdss
[3] = molecular target: Mitogen-activated protein kinase kinase kinase 20 (Homo sapiens, UniProt Q9NYL2); assay: Inhibition of ZAK (unknown origin)
[4] = Toxicity in CB17 SCID mouse assessed as induction of adverse effect at 2 mg/kg, iv; assay type: organism-based; conditions: in vivo
[5] = AUCinfinity in CB17 SCID mouse at 10 mg/kg, po after 0.25 to 24 hrs by LC/MS/MS method; assay type: ADME, organism-based; set-up: dose 10 mg/kg, time infinity, route oral; conditions: in vivo
[6] = Toxicity in CB17 SCID mouse assessed as induction of adverse effect at 10 mg/kg, po; assay type: organism-based; conditions: in vivo
[7] = Half life in CB17 SCID mouse at 10 mg/kg, po after 0.25 to 24 hrs by LC/MS/MS method; assay type: ADME, organism-based; conditions: in vivo
[8] = Toxicity in CB17 SCID mouse assessed as physical abnormalities at 100 mg/kg, po measured after 24 hrs; assay type: organism-based; conditions: in vivo
[9] = AUCinfinity in SD rat at 10 mg/kg, po after 0.25 to 24 hrs by LC/MS/MS method; assay type: ADME, organism-based; set-up: dose 10 mg/kg, route oral, time infinity; conditions: in vivo
[10] = Stability in human liver microsomes assessed as compound remaining at 1 uM incubated for 60 mins by LC/MS analysis; assay type: ADME, Microsome; conditions: read-out: Stability
[11] = Toxicity in CB17 SCID mouse assessed as behavioural abnormalities at 100 mg/kg, po measured after 24 hrs; assay type: organism-based; conditions: in vivo
[12] = Cmax in SD rat at 10 mg/kg, po after 0.25 to 24 hrs by LC/MS/MS method; assay type: ADME, organism-based; set-up: dose 10 mg/kg, route oral; conditions: in vivo
[13] = molecular target: Epithelial discoidin domain-containing receptor 1 (Homo sapiens, UniProt Q08345); assay: Inhibition of DDR1 (unknown origin)
[14] = Ratio of drug level in brain to plasma in CB17 SCID mouse at 100 mg/kg, po measured at 4 h; assay type: ADME, organism-based; conditions: brain and plasma, read-out: BPR
[15] = Clearance in SD rat at 2 mg/kg, iv after 0.25 to 24 hrs by LC/MS/MS method; assay type: ADME, organism-based; conditions: in vivo
Cannabinoid receptor 1 = Cannabinoid receptor 1 (Homo sapiens, UniProt P21554); assay: Inhibition of recombinant human CB1 incubated for 60 mins by scintillation counting method
[16] = Oral bioavailability in CB17 SCID mouse at 10 mg/kg after 0.25 to 24 hrs by LC/MS/MS method; assay type: ADME, organism-based; conditions: in vivo
[17] = Volume of distribution at steady state in CB17 SCID mouse at 2 mg/kg, iv after 0.25 to 24 hrs by LC/MS/MS method; assay type: ADME, organism-based; conditions: in vivo, read-out: Vdss
[18] = Half life in CD1 mouse liver microsomes at 1 uM incubated for 60 mins by LC/MS analysis; assay type: ADME, Microsome
[19] = Growth inhibition of human SU-DIPG-XXI cells harboring ACVR1 G328W mutant; assay type: functional
[20] = molecular target: Protein-tyrosine kinase 6 (Homo sapiens, UniProt Q13882); assay: Inhibition of BRK (unknown origin)
[21] = Protein binding in human plasma assessed as free fraction at 5 uM after 4 hrs by rapid equilibrium dialysis; assay type: ADME, cell-free
[22] = Toxicity in C57BL/6 mouse assessed as mouse death at 100 mg/kg, po QD administered for 5 days measured after 24 hrs; assay type: organism-based; conditions: in vivo
[23] = Growth inhibition of human HSJD-DIPG-007 cells harboring ACVR1 R206H mutant; assay type: functional
Cytochrome P450 3A4 = Cytochrome P450 3A4 (Homo sapiens, UniProt P08684); assay: Inhibition of CYP3A4 in human liver microsomes using testosterone as substrate incubated for 10 mins in presence of NADPH by LC/MS/MS analysis; assay type: ADME
[24] = Cmax in CB17 SCID mouse at 10 mg/kg, po after 0.25 to 24 hrs by LC/MS/MS method; assay type: ADME, organism-based; set-up: dose 10 mg/kg, route oral; conditions: in vivo
[25] = Protein binding in human plasma at 5 uM after 4 hrs by rapid equilibrium dialysis; assay type: ADME, cell-free; conditions: read-out: PPB (converted)
[26] = molecular target: TRAF2 and NCK-interacting protein kinase (Homo sapiens, UniProt Q9UKE5); assay: Inhibition of TNIK (unknown origin)
[27] = Oral bioavailability in SD rat at 10 mg/kg after 0.25 to 24 hrs by LC/MS/MS method; assay type: ADME, organism-based; conditions: in vivo
[28] = molecular target: Activin receptor type-1-like (Homo sapiens, UniProt P37023); assay: Inhibition of human ALK1 using casein as substrate in presence of [gamma-33P]-ATP by radiometric hotspot assay
[29] = molecular target: Tyrosine-protein kinase ABL1 (Homo sapiens, UniProt P00519); assay: Inhibition of ABL1 (unknown origin)
[30] = Half life in human liver microsomes at 1 uM incubated for 60 mins by LC/MS analysis; assay type: ADME, Microsome
[31] = Stability in CD1 mouse liver microsomes assessed as compound remaining at 1 uM incubated for 60 mins by LC/MS analysis; assay type: ADME, Microsome; conditions: read-out: Stability
[32] = Clearance in CB17 SCID mouse at 2 mg/kg, iv after 0.25 to 24 hrs by LC/MS/MS method; assay type: ADME, organism-based; conditions: in vivo
[33] = Half life in SD rat at 10 mg/kg, po after 0.25 to 24 hrs by LC/MS/MS method; assay type: ADME, organism-based; conditions: in vivo
[34] = molecular target: Voltage-gated inwardly rectifying potassium channel KCNH2 (Homo sapiens, UniProt Q12809); assay: Inhibition of human ERG expressed in HEK293 cells after 5 mins by IonWorks barracuda patch clamp method; assay type: cell-based
Chain of Voltage-gated inwardly rectifying potassium channel KCNH2 (Q12809 whole entry): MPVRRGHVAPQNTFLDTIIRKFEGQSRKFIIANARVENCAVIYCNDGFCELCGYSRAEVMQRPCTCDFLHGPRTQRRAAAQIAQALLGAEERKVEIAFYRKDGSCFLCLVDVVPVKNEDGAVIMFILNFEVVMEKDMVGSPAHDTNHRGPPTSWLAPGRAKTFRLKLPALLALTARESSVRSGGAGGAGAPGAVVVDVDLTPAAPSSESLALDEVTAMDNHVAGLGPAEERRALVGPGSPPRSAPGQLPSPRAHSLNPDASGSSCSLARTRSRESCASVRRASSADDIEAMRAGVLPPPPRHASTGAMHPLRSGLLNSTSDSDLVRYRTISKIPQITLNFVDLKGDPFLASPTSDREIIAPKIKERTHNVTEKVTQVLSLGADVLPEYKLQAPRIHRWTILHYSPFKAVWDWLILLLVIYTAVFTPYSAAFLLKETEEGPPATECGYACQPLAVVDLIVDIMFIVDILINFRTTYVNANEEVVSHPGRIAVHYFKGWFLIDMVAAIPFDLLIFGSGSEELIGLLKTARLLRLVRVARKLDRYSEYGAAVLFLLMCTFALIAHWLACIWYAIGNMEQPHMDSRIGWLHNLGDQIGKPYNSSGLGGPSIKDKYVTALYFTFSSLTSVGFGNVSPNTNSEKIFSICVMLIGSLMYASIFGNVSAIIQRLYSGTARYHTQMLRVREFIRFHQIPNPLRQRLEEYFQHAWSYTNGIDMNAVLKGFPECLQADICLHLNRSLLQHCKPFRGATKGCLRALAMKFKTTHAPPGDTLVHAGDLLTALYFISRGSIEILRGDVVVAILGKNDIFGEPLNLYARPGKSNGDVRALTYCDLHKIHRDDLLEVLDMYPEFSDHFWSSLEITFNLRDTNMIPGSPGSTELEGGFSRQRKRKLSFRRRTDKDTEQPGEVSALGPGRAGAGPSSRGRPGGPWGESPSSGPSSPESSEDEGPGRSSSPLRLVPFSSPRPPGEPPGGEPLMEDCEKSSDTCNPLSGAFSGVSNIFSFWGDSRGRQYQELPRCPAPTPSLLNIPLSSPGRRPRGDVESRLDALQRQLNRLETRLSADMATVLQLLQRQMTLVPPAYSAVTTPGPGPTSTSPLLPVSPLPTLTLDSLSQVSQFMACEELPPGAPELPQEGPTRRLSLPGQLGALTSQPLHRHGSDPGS

Chain of Epithelial discoidin domain-containing receptor 1 (Q08345 whole entry, the tested form may be a part): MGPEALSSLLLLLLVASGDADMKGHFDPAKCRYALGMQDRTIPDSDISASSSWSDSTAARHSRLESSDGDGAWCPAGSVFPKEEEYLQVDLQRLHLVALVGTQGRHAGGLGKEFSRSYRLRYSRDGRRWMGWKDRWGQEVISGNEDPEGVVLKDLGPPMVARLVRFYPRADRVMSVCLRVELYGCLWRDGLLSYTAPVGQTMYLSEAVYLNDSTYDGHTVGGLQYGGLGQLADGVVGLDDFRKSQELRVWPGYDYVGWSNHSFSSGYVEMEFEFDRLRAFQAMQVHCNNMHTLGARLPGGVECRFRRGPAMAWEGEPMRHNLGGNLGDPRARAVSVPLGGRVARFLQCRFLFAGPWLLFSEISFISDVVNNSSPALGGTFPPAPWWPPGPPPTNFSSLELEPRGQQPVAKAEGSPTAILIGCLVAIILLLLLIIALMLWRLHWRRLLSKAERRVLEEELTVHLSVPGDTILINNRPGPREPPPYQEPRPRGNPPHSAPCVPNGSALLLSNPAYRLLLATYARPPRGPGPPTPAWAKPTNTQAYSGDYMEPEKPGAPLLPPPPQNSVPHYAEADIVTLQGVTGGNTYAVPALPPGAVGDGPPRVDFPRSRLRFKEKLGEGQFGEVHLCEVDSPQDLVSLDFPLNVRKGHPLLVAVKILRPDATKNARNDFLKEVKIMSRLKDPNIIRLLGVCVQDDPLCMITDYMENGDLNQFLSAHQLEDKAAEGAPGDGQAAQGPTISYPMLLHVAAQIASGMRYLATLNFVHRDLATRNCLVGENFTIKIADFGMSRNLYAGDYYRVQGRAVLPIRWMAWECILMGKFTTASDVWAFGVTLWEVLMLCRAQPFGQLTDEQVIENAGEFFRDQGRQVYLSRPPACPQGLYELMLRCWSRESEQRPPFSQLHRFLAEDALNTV
Chain of Tyrosine-protein kinase ABL1 (P00519 whole entry): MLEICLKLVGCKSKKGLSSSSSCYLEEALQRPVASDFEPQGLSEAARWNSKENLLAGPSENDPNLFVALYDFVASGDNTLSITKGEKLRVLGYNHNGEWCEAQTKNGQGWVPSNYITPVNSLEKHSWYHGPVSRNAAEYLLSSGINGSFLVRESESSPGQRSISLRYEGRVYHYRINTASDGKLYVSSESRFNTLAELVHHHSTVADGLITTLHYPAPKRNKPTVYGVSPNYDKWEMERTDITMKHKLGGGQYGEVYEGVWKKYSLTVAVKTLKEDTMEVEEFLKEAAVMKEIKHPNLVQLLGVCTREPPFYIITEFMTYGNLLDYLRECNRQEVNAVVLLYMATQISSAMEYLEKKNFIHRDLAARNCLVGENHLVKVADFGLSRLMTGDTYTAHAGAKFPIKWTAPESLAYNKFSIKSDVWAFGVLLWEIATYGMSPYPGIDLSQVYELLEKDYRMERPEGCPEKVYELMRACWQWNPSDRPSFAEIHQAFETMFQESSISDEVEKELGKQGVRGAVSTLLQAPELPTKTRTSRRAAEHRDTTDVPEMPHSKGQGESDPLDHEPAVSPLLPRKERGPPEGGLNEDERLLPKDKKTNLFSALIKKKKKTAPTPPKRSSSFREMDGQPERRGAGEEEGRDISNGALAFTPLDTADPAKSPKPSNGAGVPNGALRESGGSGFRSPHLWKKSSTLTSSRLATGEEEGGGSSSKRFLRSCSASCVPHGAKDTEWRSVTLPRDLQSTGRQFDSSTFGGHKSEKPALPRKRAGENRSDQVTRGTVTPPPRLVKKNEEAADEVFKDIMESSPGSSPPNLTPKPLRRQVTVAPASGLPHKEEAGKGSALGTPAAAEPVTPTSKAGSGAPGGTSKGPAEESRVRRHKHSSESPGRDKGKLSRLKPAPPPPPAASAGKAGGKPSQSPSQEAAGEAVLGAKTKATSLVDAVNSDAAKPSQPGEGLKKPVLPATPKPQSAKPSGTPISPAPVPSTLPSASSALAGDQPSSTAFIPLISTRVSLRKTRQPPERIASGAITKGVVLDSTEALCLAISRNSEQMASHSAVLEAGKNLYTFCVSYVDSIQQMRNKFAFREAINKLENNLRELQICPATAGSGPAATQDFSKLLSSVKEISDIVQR
Chain of Activin receptor type-1-like (P37023 whole entry): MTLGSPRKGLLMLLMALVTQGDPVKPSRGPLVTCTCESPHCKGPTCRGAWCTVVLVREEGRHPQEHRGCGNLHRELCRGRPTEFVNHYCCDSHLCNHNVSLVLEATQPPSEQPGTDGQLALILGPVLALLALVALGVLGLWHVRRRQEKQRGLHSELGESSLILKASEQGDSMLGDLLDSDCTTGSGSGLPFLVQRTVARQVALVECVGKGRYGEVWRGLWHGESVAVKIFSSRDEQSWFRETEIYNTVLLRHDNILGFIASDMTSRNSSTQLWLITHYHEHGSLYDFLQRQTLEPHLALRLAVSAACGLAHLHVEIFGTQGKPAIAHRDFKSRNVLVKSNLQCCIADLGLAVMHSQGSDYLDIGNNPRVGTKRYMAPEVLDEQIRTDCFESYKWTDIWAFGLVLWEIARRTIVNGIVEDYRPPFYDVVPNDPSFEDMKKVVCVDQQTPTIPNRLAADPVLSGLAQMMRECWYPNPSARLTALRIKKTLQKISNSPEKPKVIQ
Chain of Cannabinoid receptor 1 (P21554 whole entry): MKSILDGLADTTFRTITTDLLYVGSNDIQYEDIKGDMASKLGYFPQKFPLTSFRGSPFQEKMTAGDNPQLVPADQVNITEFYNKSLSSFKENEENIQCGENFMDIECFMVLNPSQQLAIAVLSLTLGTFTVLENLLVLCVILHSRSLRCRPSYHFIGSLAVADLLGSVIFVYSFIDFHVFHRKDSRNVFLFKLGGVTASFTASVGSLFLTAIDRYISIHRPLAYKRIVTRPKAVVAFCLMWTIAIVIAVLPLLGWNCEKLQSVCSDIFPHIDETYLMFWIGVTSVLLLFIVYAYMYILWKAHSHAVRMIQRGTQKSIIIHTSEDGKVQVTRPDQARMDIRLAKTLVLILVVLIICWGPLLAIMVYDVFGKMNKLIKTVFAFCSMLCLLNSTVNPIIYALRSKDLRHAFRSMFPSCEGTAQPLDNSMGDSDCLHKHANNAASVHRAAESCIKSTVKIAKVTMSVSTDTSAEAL
Chain of Cytochrome P450 3A4 (P08684 whole entry): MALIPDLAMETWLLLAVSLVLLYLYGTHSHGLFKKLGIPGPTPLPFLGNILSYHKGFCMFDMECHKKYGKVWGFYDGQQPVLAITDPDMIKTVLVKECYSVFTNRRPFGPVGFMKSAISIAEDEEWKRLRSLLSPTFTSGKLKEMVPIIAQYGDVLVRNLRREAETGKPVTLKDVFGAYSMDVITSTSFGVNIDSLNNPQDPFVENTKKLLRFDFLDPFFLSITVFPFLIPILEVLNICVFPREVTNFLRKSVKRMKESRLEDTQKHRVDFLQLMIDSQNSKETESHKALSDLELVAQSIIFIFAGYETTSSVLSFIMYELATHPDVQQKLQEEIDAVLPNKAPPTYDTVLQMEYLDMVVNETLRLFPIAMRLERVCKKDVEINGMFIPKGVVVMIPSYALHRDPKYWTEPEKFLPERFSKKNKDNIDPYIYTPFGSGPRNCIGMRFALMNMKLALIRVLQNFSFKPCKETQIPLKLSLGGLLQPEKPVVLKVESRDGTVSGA

SMILES | IC50 (Activin receptor type-1B) [nM] | Vd [2] [L/kg] | Activity [4] | AUC(0-inf) [5] [µM·h] | Activity [6] | half-life [7] [h] | Activity [8] | AUC(0-inf) [9] [µM·h] | remaining at 1 h, 1 µM [10] [%] | Activity [11] | Cmax [12] [nM] | Kp at 4 h [14] | clearance [15] [mL/min/kg] | bioavailability [16] [%] | Vd [17] [L/kg] | half-life at 1 µM [18] [h] | GI50 [19] [nM] | fraction unbound at 4 h, 5 µM [21] | GI50 [23] [nM] | Cmax [24] [nM] | further results
COc1cc(-c2cncc(-c3ccc(N4CCNCC4)cc3)c2C)cc(OC)c1OC | 1340 | 5.22 | Non-Toxic | 51.7 | Non-Toxic | 3.11 | Non-Toxic | 17.4 | 71.4 | Non-Toxic | 1280 | 1.1 | 22.1 | 100 | 2.05 | > 1 | 52 | 0.057 | 130 | 6160 | Cp(f) [1]: 14 nM; IC50 (Misshapen-like kinase 1): 336 to 924 nM; IC50 [3]: 336 to 924 nM; IC50 [13]: 41 nM; IC50 (Cannabinoid receptor 1): 1720 nM; IC50 [20]: 336 to 924 nM; Activity [22]: Non-Toxic; IC50 (Cytochrome P450 3A4): > 9000 nM; fraction unbound at 4 h, 5 µM [25]: 0.057; IC50 [26]: 96 nM; bioavailability [27]: 96%; IC50 [28]: 15 nM; IC50 [29]: 336 to 924 nM; half-life at 1 µM [30]: > 1 h; remaining at 1 h, 1 µM [31]: 64.6%; clearance [32]: 12.7 mL/min/kg; half-life [33]: 3.58 h
COc1cc(-c2cncc(-c3ccc(C4CCN(C)CC4)cc3)c2C)cc(OC)c1OC | > 2000 | 4.33 | Non-Toxic | 32.4 | Non-Toxic | 3.67 | Non-Toxic | 12.9 | 71.2 | Non-Toxic | 1160 | 1.55 | 15.1 | 74 | 2.44 | > 1 | 214 | 0.05 | 36 | 4740 | inhibition (Misshapen-like kinase 1): Active; inhibition [3]: Active; inhibition [13]: Active; inhibition [20]: Active; IC50 [34]: 4800 nM; fraction unbound at 4 h, 5 µM [25]: 0.05; inhibition [26]: Active; bioavailability [27]: 50%; inhibition [29]: Active; half-life at 1 µM [30]: > 1 h; remaining at 1 h, 1 µM [31]: 55.5%; clearance [32]: 8.9 mL/min/kg; half-life [33]: 3.9 h
